For data set [1], the target named is T1, monoamine oxidase isoform B (Homo sapiens, UniProt P27338).
T1 sequence (P27338 1-520): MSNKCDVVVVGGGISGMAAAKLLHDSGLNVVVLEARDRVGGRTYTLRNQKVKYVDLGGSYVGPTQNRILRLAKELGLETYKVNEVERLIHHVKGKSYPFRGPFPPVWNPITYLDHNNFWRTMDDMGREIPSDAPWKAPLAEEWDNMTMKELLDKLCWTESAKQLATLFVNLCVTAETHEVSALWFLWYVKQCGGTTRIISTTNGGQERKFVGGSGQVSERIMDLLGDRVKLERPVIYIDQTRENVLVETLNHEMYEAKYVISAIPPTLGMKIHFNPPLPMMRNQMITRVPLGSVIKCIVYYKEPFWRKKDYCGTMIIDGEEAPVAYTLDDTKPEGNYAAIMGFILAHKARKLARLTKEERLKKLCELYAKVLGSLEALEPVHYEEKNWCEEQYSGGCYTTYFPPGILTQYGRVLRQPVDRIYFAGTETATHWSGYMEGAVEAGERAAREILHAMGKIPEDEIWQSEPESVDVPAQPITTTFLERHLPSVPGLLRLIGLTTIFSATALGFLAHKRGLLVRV
Kind of data set: Monoamine oxidase B inhibition. It is filed as biochemical.

For data set [2], the target named is 5-hydroxytryptamine isoform 1b (Homo sapiens, UniProt P28222). Kind of data set: 5-hydroxytryptamine 1b inhibition. It is filed as binding.
Data set [3] concerns the target serotonin transporter protein SERT (Homo sapiens, UniProt P31645). Kind of data set: Serotonin transporter SERT inhibition. It is filed as binding.
For data set [4], the target named is Dopamine Transporter (DAT) (Homo sapiens, UniProt Q01959). The data set is described as follows: Dopamine Transporter (DAT) binding.
Data set [5] deals with T2, monoamine oxidase isoform A (Homo sapiens, UniProt P21397).
T2 sequence (P21397 1-527): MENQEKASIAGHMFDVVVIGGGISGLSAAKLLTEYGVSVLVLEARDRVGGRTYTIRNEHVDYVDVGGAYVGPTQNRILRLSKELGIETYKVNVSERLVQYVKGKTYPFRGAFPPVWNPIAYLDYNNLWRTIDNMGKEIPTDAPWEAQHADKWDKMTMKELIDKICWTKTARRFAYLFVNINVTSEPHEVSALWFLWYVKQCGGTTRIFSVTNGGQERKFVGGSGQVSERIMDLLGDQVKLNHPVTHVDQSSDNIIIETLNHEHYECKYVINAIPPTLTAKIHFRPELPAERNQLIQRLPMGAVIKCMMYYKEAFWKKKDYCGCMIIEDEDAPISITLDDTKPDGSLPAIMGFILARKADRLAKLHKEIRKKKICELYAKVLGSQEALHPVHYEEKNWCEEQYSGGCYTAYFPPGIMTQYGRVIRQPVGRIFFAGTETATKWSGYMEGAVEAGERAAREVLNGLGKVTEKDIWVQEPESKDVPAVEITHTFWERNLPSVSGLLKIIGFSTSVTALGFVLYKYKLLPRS
Kind of data set: Monoamine oxidase A inhibition. It is filed as biochemical.

A further data set concerns adrenergic receptors. Kind of data set: Adrenergic receptor inhibition. It is filed as binding.
Data set [6] deals with T3, catechol O-methyl transferase (COMT) (Homo sapiens, UniProt P21964).
T3 sequence (P21964 1-271): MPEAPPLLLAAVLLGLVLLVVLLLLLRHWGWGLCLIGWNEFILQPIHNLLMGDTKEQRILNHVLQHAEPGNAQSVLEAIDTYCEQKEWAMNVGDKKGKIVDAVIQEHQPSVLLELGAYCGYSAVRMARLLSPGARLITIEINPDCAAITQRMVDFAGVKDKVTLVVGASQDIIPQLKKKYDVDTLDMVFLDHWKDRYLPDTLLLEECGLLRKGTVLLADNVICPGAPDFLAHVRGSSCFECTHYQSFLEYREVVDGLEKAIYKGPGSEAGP
The data set is described as follows: COMT inhibition. It is filed as biochemical.

The next data set concerns Male Sprague-Dawley rats. Kind of data set: Spontaneous locomotor activity in rats (sedative properties). It is filed as in vivo. The note with it: for Inactivity Duration / Large movements Duration / Large movements Occurrence: 20 min period, mean ± SEM n=12. On the procedure:
A study was carried out in rats to determine whether the dihydrotetrabenazine isomers of the invention have sedative properties. […] Male Sprague-Dawley rats, (Charles River Laboratories, Saint-Germain/L'Arbresle, France), weighing 200-250 g at the beginning of the study, were used for the studies. […] The rats were allowed to acclimatize to their conditions for at least five days before commencement of the study. The rats received food ([…], France, ref. 811002) and water (tap water in water bottle) ad libitum. Solutions of each test compound in corn oil were freshly prepared on the day of the experiment. Haloperidol was prepared in hydroxyethylcellulose, 0.5% in deionized water. Either the vehicle or the test compounds were administered as a single dose (0.3, 1, 3 and 10 mg/kg, 2 mL/kg i.p.). The reference compound haloperidol (1 mg/kg) was administered i.p. […] The animals were placed in plexiglass cages under a video camera in a room with low light intensity (maximum 50 lux). At forty five minutes and 3 hours after administration, locomotor activity was determined during 20 minute periods using a video image analyzer (Videotrack, View Point, France). […] The number and duration of ambulatory movements and duration of inactivity was measured. At the end of the locomotor activity measurement (45 minutes and 3 hours), palpebral closure and arousal were be scored as follows in the plexiglass cage: […] Image tracking was performed using a video camera placed above the plexiglass cage, recording overall locomotor activity. […] The results were expressed as the means ±SEMs of the 12 individual values. Statistical analyses were carried out using ANOVA (one way) and Dunnett's t-test and with the non parametric test of Kruskal-Wallis followed by a Mann & Whitney U-test for the sedation cotation. A p value of p<0.05 was taken as indicating significance. Group size n=12 Group 1: Reference, haloperidol (1 mg/kg i.p.) Group 2: Vehicle control group (2 ml/kg i.p.) Group 3: tetrabenazine (0.3 mg/kg i.p) Group 4: tetrabenazine (1 mg/kg i.p) Group 5: tetrabenazine (3 mg/kg i.p) Group 6: tetrabenazine (10 mg/kg i.p) Group 7: […]

In another data set the test system is dopamine receptor. Kind of data set: Dopamine receptor binding.
For data set [7], the target named is 5-hydroxytryptamine isoform 1d (Homo sapiens, UniProt P28221). The data set is described as follows: 5-hydroxytryptamine 1d inhibition. It is filed as binding.
Setting [8] is: rats, 0.3 mg/kg i.p., 45 minutes after administration.
Setting [9] is: rats, 0.3 mg/kg i.p., 3 hours after administration.
Setting [10] is: rats, 1 mg/kg i.p., 45 minutes after administration.
The mark [11] stands for this setting: rats, 1 mg/kg i.p., 3 hours after administration.
[12] abbreviates: rats, 3 mg/kg i.p., 45 minutes after administration.
[13] abbreviates: rats, 3 mg/kg i.p., 3 hours after administration.
[14] abbreviates: rats, 10 mg/kg i.p., 45 minutes after administration.
Setting [15] is: rats, 10 mg/kg i.p., 3 hours after administration.

Sequence of 5-hydroxytryptamine isoform 1d (P28221 whole entry, canonical isoform): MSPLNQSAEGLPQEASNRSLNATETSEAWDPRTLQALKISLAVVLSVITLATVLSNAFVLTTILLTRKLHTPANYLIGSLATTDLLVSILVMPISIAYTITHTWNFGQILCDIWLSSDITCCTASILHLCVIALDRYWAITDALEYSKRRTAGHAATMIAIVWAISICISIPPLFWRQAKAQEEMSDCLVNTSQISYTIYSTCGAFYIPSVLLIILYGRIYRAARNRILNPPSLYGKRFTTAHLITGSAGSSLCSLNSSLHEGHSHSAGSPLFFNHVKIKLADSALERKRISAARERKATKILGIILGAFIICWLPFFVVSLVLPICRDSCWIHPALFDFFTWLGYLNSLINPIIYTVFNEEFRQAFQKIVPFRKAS
Sequence of Dopamine Transporter (DAT) (Q01959 whole entry, species assumed, canonical isoform): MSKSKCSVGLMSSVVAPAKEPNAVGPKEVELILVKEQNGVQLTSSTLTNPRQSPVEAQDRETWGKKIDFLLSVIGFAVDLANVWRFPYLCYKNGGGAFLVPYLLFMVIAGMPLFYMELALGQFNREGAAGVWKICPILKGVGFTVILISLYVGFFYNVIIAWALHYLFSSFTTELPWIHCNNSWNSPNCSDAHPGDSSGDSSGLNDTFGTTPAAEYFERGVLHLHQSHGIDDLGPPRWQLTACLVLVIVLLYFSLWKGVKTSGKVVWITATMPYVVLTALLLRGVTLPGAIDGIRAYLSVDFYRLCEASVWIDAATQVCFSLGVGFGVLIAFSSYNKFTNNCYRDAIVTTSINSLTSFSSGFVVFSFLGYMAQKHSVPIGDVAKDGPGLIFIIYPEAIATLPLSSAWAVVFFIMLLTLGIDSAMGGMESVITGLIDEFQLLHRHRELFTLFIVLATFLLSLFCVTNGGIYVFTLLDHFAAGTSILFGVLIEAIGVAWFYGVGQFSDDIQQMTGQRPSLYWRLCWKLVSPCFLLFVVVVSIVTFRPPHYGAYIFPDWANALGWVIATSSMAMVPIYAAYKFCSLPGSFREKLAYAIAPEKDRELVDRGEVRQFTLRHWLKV
Sequence of 5-hydroxytryptamine isoform 1b (P28222 whole entry, canonical isoform): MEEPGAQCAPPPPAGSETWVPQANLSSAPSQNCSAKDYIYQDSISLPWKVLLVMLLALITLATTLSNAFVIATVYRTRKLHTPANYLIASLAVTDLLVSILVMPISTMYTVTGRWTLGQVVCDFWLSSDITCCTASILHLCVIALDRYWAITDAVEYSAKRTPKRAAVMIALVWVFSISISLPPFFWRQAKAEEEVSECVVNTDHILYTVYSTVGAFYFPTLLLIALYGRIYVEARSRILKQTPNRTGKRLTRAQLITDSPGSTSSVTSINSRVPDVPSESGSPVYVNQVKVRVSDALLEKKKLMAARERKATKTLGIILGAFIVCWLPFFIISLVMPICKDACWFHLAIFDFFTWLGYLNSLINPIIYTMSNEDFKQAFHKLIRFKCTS
Sequence of serotonin transporter protein SERT (P31645 whole entry): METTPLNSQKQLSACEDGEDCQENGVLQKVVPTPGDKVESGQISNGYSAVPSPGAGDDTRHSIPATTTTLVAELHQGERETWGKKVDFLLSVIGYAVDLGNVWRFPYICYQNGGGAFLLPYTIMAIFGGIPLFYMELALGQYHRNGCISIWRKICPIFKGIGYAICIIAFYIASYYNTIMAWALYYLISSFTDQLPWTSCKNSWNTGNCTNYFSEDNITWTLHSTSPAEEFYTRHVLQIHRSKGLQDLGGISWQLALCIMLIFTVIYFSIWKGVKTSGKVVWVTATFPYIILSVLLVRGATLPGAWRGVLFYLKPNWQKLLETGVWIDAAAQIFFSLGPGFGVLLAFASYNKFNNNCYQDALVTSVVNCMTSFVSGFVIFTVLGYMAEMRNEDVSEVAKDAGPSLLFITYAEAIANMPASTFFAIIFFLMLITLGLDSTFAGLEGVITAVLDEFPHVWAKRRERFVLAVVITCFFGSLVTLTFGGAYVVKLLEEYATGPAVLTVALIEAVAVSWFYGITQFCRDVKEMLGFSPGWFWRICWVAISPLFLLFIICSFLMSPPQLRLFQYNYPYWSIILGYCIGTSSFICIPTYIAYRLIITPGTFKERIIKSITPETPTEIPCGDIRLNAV

Take `COc1cc2c(cc1OC)C1CC(O)C(CC(C)C)CN1CC2` (single isomer, unassigned; isomer c) [Isomer C]: the “inhibitory activity against monoamine oxidase isoform B” value in data set [1] was “no inhibitory activity”. Also, in data set [2], the “inhibitory activity against 5-hydroxytryptamine isoform 1b” value was “no inhibitory activity”. Besides, the “inhibition of the serotonin transporter protein SERT” value in [3] was “potent inhibitors”. For the same compound, in data set [4], the “Dopamine Transporter (DAT) binding activity” value is listed as “lack Dopamine Transporter (DAT) binding activity”. For the same compound, the “inhibitory activity against monoamine oxidase isoform A” value in [5] is given as “no inhibitory activity”. Further, in the data set on adrenergic receptors, the “inhibition of the adrenergic receptors” value was “either weakly active or inactive”. Further, the “inhibitory activity against catechol O-methyl transferase (COMT)” value in data set [6] was “no inhibitory activity”. Further, the sedative effect entry is listed as “no sedative effects were observed” in the data set on Male Sprague-Dawley rats (locomotor studies carried out on rats); “no sedative effects at any time” in the data set on Male Sprague-Dawley rats (rats, 0.3, 1, 3 and 10 mg/kg i.p., 45 minutes and 3 hours after administration). The “Inactivity Duration” value with Male Sprague-Dawley rats (setting [8]) stood at 323.7 ± 25.6 s; in the data set with Male Sprague-Dawley rats (setting [9]), 519.3 ± 33.7 s; with Male Sprague-Dawley rats (setting [10]) it was 324.6 ± 38.1 s; in the data set on Male Sprague-Dawley rats (setting [11]), 510.2 ± 44.9 s; with Male Sprague-Dawley rats (setting [12]) it was 322.7 ± 27.8 s; in the data set with Male Sprague-Dawley rats (setting [13]), 493.6 ± 38.5 s. Besides, the entries for the “Inactivity Duration” value in the data set with Male Sprague-Dawley rats (setting [14]) and with Male Sprague-Dawley rats (setting [15]) were 368.7 ± 30.9 s and 465.7 ± 49.0 s, respectively. Further, the “Large movements Duration” value in the data set with Male Sprague-Dawley rats (setting [8]) turned out to be 79.2 ± 10.0 s; in the data set with Male Sprague-Dawley rats (setting [9]), 31.4 ± 6.0 s; in the data set with Male Sprague-Dawley rats (setting [10]) it was 71.8 ± 8.3 s; in the data set on Male Sprague-Dawley rats (setting [11]), 30.3 ± 6.5 s; with Male Sprague-Dawley rats (setting [12]), 84.0 ± 9.4 s; in the data set on Male Sprague-Dawley rats (setting [13]), 30.2 ± 5.5 s. The “Large movements Duration” value in the data set on Male Sprague-Dawley rats (setting [14]) was 66.5 ± 9.9 s; with Male Sprague-Dawley rats (setting [15]), 42.7 ± 8.0 s. Also, the “Large movements Occurrence” value was determined as 285 ± 34 in the data set on Male Sprague-Dawley rats (setting [8]); 113 ± 19 in the data set with Male Sprague-Dawley rats (setting [9]); 295 ± 30 in the data set with Male Sprague-Dawley rats (setting [10]); 128 ± 24 in the data set with Male Sprague-Dawley rats (setting [11]); 308 ± 36 in the data set on Male Sprague-Dawley rats (setting [12]); 125 ± 22 in the data set with Male Sprague-Dawley rats (setting [13]). The results for the “Large movements Occurrence” value in the data set with Male Sprague-Dawley rats (setting [14]) and in the data set on Male Sprague-Dawley rats (setting [15]) were 254 ± 32 and 164 ± 30, respectively. For the same compound, the hyperlocomotor effect result in the data set with Male Sprague-Dawley rats (rats, 3 hours after administration) was “slight and non-significant hyperlocomotor effect”. The “dopamine receptor binding activity” value with dopamine receptor is listed as “only weak or non-existent”. Moreover, the “inhibitory activity against 5-hydroxytryptamine isoform 1d” value in [7] was “no inhibitory activity”.
For `O=C(CCCN1CCC(O)(c2ccc(Cl)cc2)CC1)c1ccc(F)cc1` [haloperidol, reference compound], in the data set with Male Sprague-Dawley rats (setting [10]), the “Inactivity Duration” value is 637.2 ± 60.1 s, the “Large movements Duration” value was 14.8 ± 8.5 s and the “Large movements Occurrence” value is on record as 58 ± 33. Besides, in the data set with Male Sprague-Dawley rats (setting [11]), the “Inactivity Duration” value stood at 723.6 ± 50.2 s, the “Large movements Duration” value was determined as 2.2 ± 2.0 s and the “Large movements Occurrence” value is recorded as 9 ± 8.
